These results are taken from article PMC11610669, “A Spectroscopic Study on the Amyloid‐β Interaction with Clicked Peptide‐Porphyrin Conjugates: a Vision Toward the Detection of Aβ Peptides in Aqueous Solution” (Chembiochem, 2024).

In general, Kd refers to the concentration at which binding is half-saturated. A higher Kd goes with a looser complex.

One data set has as its target Aβ42 (Homo sapiens, UniProt P05067). Description: Grating-Coupled Interferometry (GCI) binding to immobilized Aβ42. The method, then: The Grating‐Coupled Interferometry (GCI) is a widely used analytical technique for characterizing intermolecular interactions. It allows quantitative measurements of both the affinity and the kinetics of the binding events. This high sensitivity label‐free method was exploited to measure the interactions of Aβ42 with Cu‐Ph‐Pep , Ph‐Pep , and Zn‐Ph‐Pep (Figure 5S). Control experiments with pristine MCPTPyP and the peptide GPGKLVFF ( Pep ) were carried out for comparison. The calculated association and dissociation kinetic constants (kon and koff, respectively) and the thermodynamic binding constant (KD), are summarized in Table 1. The obtained values indicate that all the conjugates show good affinities with Aβ42. It is also clear from Table 1 that the peptide moiety is fundamental for the molecular recognition of the Aβ42 peptide.[48] […] Nevertheless, it is important to emphasize that the interaction with Aβ42 is primarily mediated by the peptide rather than by the porphyrin macrocycle. We next investigated whether these peptide derivatives could be employed as molecular probes for the detection of Aβ42 aggregated species. A new set of CD experiments was then carried out with Aβ42 at 20 μM both in the absence and in the presence of the porphyrin‐peptide conjugates at 1 : 1 molar ratio in the UV (195–350) and Visible (350–500) regions. […] The signal rapidly evolved toward the typical β‐sheet profile (already within 24 h) with a single minimum at 216 nm, an x‐axis intercept at 202 nm and a maximum shift at a wavelength 195 nm.[49] […] For the sake of comparison, the CD spectra of the porphyrin‐peptide conjugates at 20 μM were also recorded in the same experimental conditions, both in the far‐UV and Visible regions (Figure 6S).
The experiments were performed on a Creoptix WAVE system (Creoptix). Borate buffer (100 mM sodium borate pH 9.0, 1 M NaCl) was used for chip conditioning. Aβ42 peptide (20 μg/ml in Na Acetate pH 4.5) was immobilized on 4PCH WAVE chips (quasiplanar polycarboxylate surface; Creoptix) according to the manufacturer instructions at a final density of 1910±40 pg/mm^2. Single‐cycle sequential injections of dilution series for each Porphyrin‐Peptide conjugates in running buffer (PBS, 0.005 % Tween 20, 1 % DMSO, 0.2 mg/ml BSA) were performed at 25 °C, using a flow rate of 100 μl/min. In details, for the conjugate Cu‐Ph‐Pep , 1 : 2 dilution series starting from 200 μM were injected for 10 s association time, 45 s dissociation time, followed by a dissociation time of 600 s for the last higher concentration injection. Finally, for the conjugates Ph‐Pep and Zn‐Ph‐Pep , 1 : 2 dilution series starting from 50 μM and 100 uM, respectively, were injected for 30 s association time, 45 s dissociation time, followed by a dissociation time of 600 s for the last higher concentration injection. Blank injections were used for double referencing and a DMSO calibration curve for bulk correction. Analysis and correction of the obtained data were performed using the Creoptix WAVE control software (correction applied: X and Y offset; DMSO calibration; double referencing). Mass transport binding models with bulk correction were used to fit all experiments. All the experiments have been performed at least in triplicate.
Figure 5S. Quantitative binding kinetics of Aβ42 vs a) MCPTPyP; b) Cu-Ph-Pep; c) Ph-Pep; d) Zn-Ph-Pep; and e) Pep measured by GCI. All curves were blank subtracted. Experiments were performed in triplicate. All the quality assessments (i.e., χ2 shown in Table 1 of the main text , parameter errors, and residual plots were acceptable; the sensorgrams had sufficient curvatures an d the kinetic constant k off were within the measurable range) were fulfilled. Descriptive Statistical Analysis was employed to calculate the mean of the obtained values of k on, koff and KD as a measure of central tendency and standard deviations of the former values were computed as a measure of dispersion.
Figure 6S. […]

In a further data set the test system is SH-SY5Y. As to the kind of experiment: Live cell confocal fluorescence imaging. It counts as cell-based, human. The note with it: RA-differentiated SH-SY5Y, 5 μM, 24 h, excitation 405 nm, emission 600–700 nm. As to the method:
The intracellular localization of porphyrins in living cells has already been reported in the literature.[50, 51] […] The ability of our compounds to associate with cells or to be taken up by them was investigated by live cell confocal fluorescence and flow cytometry. For this purpose, we exploited the fluorescence of the porphyrin moiety. Fully differentiated SH‐SY5Y cells were exposed to 5 μM of each compound for 24 h, and then fluorescence spectra inside and outside cells were measured as described in the experimental section. The images reported in Figure 6, panel a, show the emission spectra recorded (pixel by pixel) inside cells, compared to the emission spectra recorded for control cells (no porphyrins in the growth medium). A specific porphyrin signal recorded between 600 nm and 700 nm only in the exposed sample, provides evidence that the porphyrin‐conjugated compounds are distributed within the cells. We first measured the emission spectra of each compound to confirm that the fluorescent properties measured in vitro were maintained under the conditions applied during the biological assay. Once the specific emission peak typical of porphyrins was detected inside the cells, we measured the average fluorescence intensity for each compound under study. Although modest, the signal was detected in almost every cell under the microscope stage. […]

Sequence of Aβ42 (P05067 672-713 limits assumed): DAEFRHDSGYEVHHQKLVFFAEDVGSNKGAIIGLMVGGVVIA

As to `C[n+]1ccc(-c2c3nc(c(-c4cc[n+](C)cc4)c4ccc([nH]4)c(-c4cc[n+](C)cc4)c4nc(c(-c5ccc(C(=O)O)cc5)c5ccc2[nH]5)C=C4)C=C3)cc1.[Cl-].[Cl-].[Cl-]` [MCPTPyP, 5‐(4‐carboxyphenyl)‐10,15,20‐(tri‐N‐Methyl‐4‐Pyridyl) Porphyrin trichloride, reference compound], binding at Aβ42 (GCI (Creoptix WAVE), Aβ42 immobilized on 4PCH chip, PBS, 0.005 % Tween 20, 1 % DMSO, 0.2 mg/ml BSA, 25 °C, 100 μl/min, mass transport binding model, mean ± SD, at least triplicate) was put at a Kd of 215 ± 13 µM. Also, on Aβ42 (GCI fit quality parameter), the “χ^2 (average of the squared residuals, fitting confidence)” value was 0.63±0.06. Moreover, the “cell entry / intracellular distribution” value with SH-SY5Y was “able to cross the plasma membrane and to distribute within the cells”.
